One assay concerns AsPC1 (pancreas). The experiment in a line: Anti-cell proliferation in tumor cells (14C-thymidine incorporation), AsPC1. Format: cell-based. Here is the method:
(§1) The effect of compounds of the invention on cell proliferation in various tumor cells was tested based on incorporation of ^14C-thymidine into DNA of cells.
(§2) Similar to those described above in 3a, except that different cells, cell growth medium, and growth supplements were used. Human tumor cell lines derived from various human tissue origins (LoVo from colon, H460 from lung, T47D from breast, PC3 from prostate, A375 from melanoma, AsPC1 from pancreas) were obtained from the American Type Culture Collection (ATCC) and cultured under specified conditions required for each cell type, as provided by ATCC. Complete medium was obtained from Cellgro: Iscove's medium with 10% Fetal Bovine Serium (FBS) (Mediatech, Inc., Herndon, Va. 20171, Cat. No. 10-016-CV).
(§3) Tumor cells were seeded at approx. 3000–8000 cells per well in a volume of 100 μl of complete medium. Cells were grown for 24 hours in complete medium, and 1 μl of test compound was serially diluted in 100% DMSO and added to each well. For maximum growth control wells, only 1 μl of 100% DMSO was added. After 24 hours incubation, 20 μl of ^14C-thymidine master mix was added to each well and the ^14C-thymidine master mix was pepared according to the following regimen:
(§4) Cells were incubated for an additional 24 hours at 37° C. in medium containing test compound and ^14C-thymidine. Then, the reaction mixture was discarded and the plate was washed 2 times each with 200 μl PBS. Subsequently, each well on the plate was filled with 200 μl of PBS. The top of the plate was sealed with transparent plate sealer and white plate backing sealers were applied to the bottom of plates. The retained ^14C inside each well was measured using a Packard TopCount.
(§5) In order to test the potency of inhibition of the present compound, IC50 of an individual compound on the inhibition of tumor cell line proliferation was measured using the above procedure. As used herein, said IC50 refers to the concentration of the test compound at which the amount of tumor cell proliferation is reduced by one-half as compared to the maximum growth control wells without the compound.

In another assay the test system is PC3 (prostate). Kind of assay: Anti-cell proliferation in tumor cells (14C-thymidine incorporation), PC3. Type of assay: cell-based. Here is the method:
as §1, §2, §3, §4, §5
For orientation: Dividing cells build labelled thymidine or BrdU into new DNA.

The next assay relates to A375 (melanoma). The experiment in a line: Anti-cell proliferation in tumor cells (14C-thymidine incorporation), A375. Type of assay: cell-based. Here is the method: as §1, §2, §3, §4, §5
Another assay relates to T47D (breast). The experiment in a line: Anti-cell proliferation in tumor cells (14C-thymidine incorporation), T47D. Format: cell-based. The following applies: Homo sapiens, read-out: IC50 on cell proliferation, T47D. How it is done:
as §1, §2, §3, §4, §5

Assay [1] deals with T1, PDGF-receptor beta enzyme comprising the tyrosine kinase domain (Homo sapiens, UniProt P09619).
T1 construct: from amino acid 545 to 1106 of GenBank Access NO: AAA36427
T1 sequence (P09619 545-1106): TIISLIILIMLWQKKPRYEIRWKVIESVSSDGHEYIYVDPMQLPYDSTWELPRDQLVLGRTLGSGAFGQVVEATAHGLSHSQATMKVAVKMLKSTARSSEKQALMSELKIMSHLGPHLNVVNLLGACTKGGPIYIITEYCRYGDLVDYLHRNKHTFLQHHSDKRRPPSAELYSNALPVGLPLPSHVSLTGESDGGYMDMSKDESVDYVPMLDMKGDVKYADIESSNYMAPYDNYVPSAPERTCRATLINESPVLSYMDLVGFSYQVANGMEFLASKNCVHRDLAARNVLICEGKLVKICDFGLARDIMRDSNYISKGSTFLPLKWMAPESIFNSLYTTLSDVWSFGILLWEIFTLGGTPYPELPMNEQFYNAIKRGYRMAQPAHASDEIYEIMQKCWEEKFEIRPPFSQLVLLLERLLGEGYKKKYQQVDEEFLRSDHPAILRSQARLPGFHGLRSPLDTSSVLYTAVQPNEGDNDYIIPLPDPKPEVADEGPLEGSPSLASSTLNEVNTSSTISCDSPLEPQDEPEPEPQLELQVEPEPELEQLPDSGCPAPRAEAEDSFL
The experiment in a line: Inhibition of PDGF-receptor kinase activity (cell-free, PLC1 peptide, 33P Flashplate). Type of assay: biochemical. As to conditions: PDGF-R kinase activity; for inhibition at 10 µM: compound at 10 uM, read-out: Percent Inhibition @ 10 uM; for IC50: read-out: IC50. In short, it runs like this: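 Recombinant kinase domain (aa 545–1106) phosphorylated a biotinylated PLC1 peptide with 5 μM ATP plus 33P-γ-ATP, in Tris pH 8, MgCl2, Na3VO4 and 1 mM DTT, for 60 min at 30 °C. Retained 33P was counted after washing. IC50 is the concentration halving activity versus no-inhibitor reactions.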

The next assay concerns LoVo (colon). Kind of assay: Anti-cell proliferation in tumor cells (14C-thymidine incorporation), LoVo. Type of assay: cell-based. The following applies: Homo sapiens, read-out: IC50 on cell proliferation, LoVo. How it is done: as §1, §2, §3, §4, §5
The subject of another assay is H460 (lung). The experiment in a line: Anti-cell proliferation in tumor cells (14C-thymidine incorporation), H460. Format: cell-based. Here is the method:
as §1, §2, §3, §4, §5

Setting [2] is: Homo sapiens, ASPC1; read-out: IC50 on cell proliferation, AsPC1.
Where [3] appears, read: Homo sapiens, PC-3; read-out: IC50 on cell proliferation, PC3.
Setting [4] is: Homo sapiens, A-375; read-out: IC50 on cell proliferation, A375.
Where [5] appears, read: Homo sapiens, NCI-H460; read-out: IC50 on cell proliferation, H460.

The structures appear in SMILES notation. Where two headings read alike, the source gives them in different places.

With `COc1ccc2c(c1)-c1n[nH]c(Nc3ccccc3)c1C2` [Compound 39, (7-Methoxy-2,4-dihydro-indeno[1,2-c]pyrazol-3-yl)-phenyl-amine], the IC50 was more than 10000 nM in the assay on AsPC1 (pancreas) (setting [2]), more than 10000 nM with PC3 (prostate) (setting [3]), more than 50000 nM with A375 (melanoma) (setting [4]) and more than 10000 nM with T47D (breast). Moreover, in assay [1], the inhibition (usually the relative decrease from the control value, in per cent) at 10 µM was determined as 92%.

Regarding `Cc1ccc2c(c1)-c1n[nH]c(Nc3ccccc3)c1C2` [Compound 22, (7-Methyl-2,4-dihydro-indeno[1,2-c]pyrazol-3-yl)-phenyl-amine], the IC50 is more than 10000 nM with AsPC1 (pancreas) (setting [2]); 49500 nM in the assay with PC3 (prostate) (setting [3]); 11600 nM in the assay on A375 (melanoma) (setting [4]); 381 nM with T47D (breast); 45 nM in assay [1]; 13400 nM in the assay on LoVo (colon). Besides, the IC50 in the assay on H460 (lung) (setting [5]) was found to be 9270 nM. Moreover, the inhibition at 10 µM in assay [1] worked out at 96%.

With `COc1cccc(Nc2[nH]nc3c2Cc2cc4c(cc2-3)OCO4)c1` [Compound 97, (2,9-Dihydro-5,7-dioxa-2,3-diaza-cyclopenta[a]-s-indacen-1-yl)-(3-methoxy-phenyl)-amine], the IC50 in the assay on AsPC1 (pancreas) (setting [2]) turned out to be 5670 nM; in the assay on PC3 (prostate) (setting [3]), 1680 nM; with A375 (melanoma) (setting [4]), 362 nM; in the assay with T47D (breast) it was 622 nM; in assay [1] it was 54 nM; with LoVo (colon) it was 225 nM. The IC50 with H460 (lung) (setting [5]) was 424 nM. In addition, the inhibition at 10 µM in assay [1] was determined as 91%.

With `CN1CCN(c2ccc3c(c2)Cc2c-3n[nH]c2Nc2cccc(Br)c2)CC1` [Compound 122, (3-Bromo-phenyl)-[6-(4-methyl-piperazin-1-yl)-2,4-dihydro-indeno[1,2-c]pyrazol-3-yl]-amine], the IC50 in the assay with AsPC1 (pancreas) (setting [2]) was more than 10000 nM; with PC3 (prostate) (setting [3]), 6340 nM; in the assay with A375 (melanoma) (setting [4]), 14400 nM; with T47D (breast) it was 10500 nM; in assay [1], 16.2 nM; with LoVo (colon), 3840 nM. Further, in the assay on H460 (lung) (setting [5]), the IC50 was found to be 14300 nM. In assay [1], the inhibition at 10 µM amounted to 70%.

Consider `COc1cc2c(cc1OC)-c1n[nH]c(NCc3cc(Cl)ccc3Cl)c1C2` [Compound 330, (2,5-Dichloro-benzyl)-(6,7-dimethoxy-2,4-dihydro-indeno[1,2-c]pyrazol-3-yl)-amine], for which the IC50 in the assay on AsPC1 (pancreas) (setting [2]) amounted to 1550 nM; with PC3 (prostate) (setting [3]), 303 nM; with A375 (melanoma) (setting [4]), 2180 nM; in the assay on T47D (breast), 355 nM; in assay [1], 16.2 nM; in the assay with LoVo (colon) it was 3700 nM. Further, the IC50 with H460 (lung) (setting [5]) is 1200 nM. In addition, in assay [1], the inhibition at 10 µM came out at 100%.

For the compound `COc1cc2c(cc1OC)-c1n[nH]c(NCc3ccccc3)c1C2` [Compound 63, Benzyl-(6,7-dimethoxy-2,4-dihydro-indeno[1,2-c]pyrazol-3-yl)-amine], the IC50 in the assay on AsPC1 (pancreas) (setting [2]) was found to be 10300 nM; in the assay on PC3 (prostate) (setting [3]) it was 6120 nM; in the assay with A375 (melanoma) (setting [4]) it was 2840 nM; with T47D (breast), 2600 nM; in assay [1], 191 nM; with LoVo (colon), 2400 nM. Moreover, in the assay with H460 (lung) (setting [5]), the IC50 turned out to be 3670 nM. In addition, in assay [1], the inhibition at 10 µM turned out to be 94%.

With `COC(=O)c1cccc(Nc2[nH]nc3c2Cc2cc(OCCCN4CCCC4)c(OC)cc2-3)c1` [Compound 157, 3-[7-Methoxy-6-(3-pyrrolidin-1-yl-propoxy)-2,4-dihydro-indeno[1,2-c]pyrazol-3-ylamino]-benzoic acid methyl ester], the IC50 with AsPC1 (pancreas) (setting [2]) is more than 10000 nM; in the assay on PC3 (prostate) (setting [3]) it was 3130 nM; in the assay on A375 (melanoma) (setting [4]), 1230 nM; in the assay with T47D (breast) it was 1900 nM; in assay [1] it was 7 nM; in the assay on LoVo (colon), 2140 nM. For the same compound, the IC50 in the assay on H460 (lung) (setting [5]) was determined as 3590 nM. Also, the inhibition at 10 µM in assay [1] is 85%.

In the case of `COc1cc2c(cc1OC)-c1n[nH]c(Nc3cccnc3)c1C2` [Compound 30, (6,7-Dimethoxy-2,4-dihydro-indeno[1,2-c]pyrazol-3-yl)-pyridin-3-yl-amine], the IC50 with AsPC1 (pancreas) (setting [2]) is more than 10000 nM; in the assay on PC3 (prostate) (setting [3]) it was 175 nM; with A375 (melanoma) (setting [4]) it was 507 nM; in the assay on T47D (breast), 8200 nM; in assay [1], 16 nM; in the assay on LoVo (colon) it was 423 nM. Further, the IC50 with H460 (lung) (setting [5]) is 290 nM. Besides, in assay [1], the inhibition at 10 µM came out at 107%.

`COC(=O)c1cccc(Nc2[nH]nc3c2Cc2cc(OC)c(OC)cc2-3)c1` [Compound 11, 3-(6,7-Dimethoxy-2,4-dihydro-indeno[1,2-c]pyrazol-3-ylamino)-benzoic acid methyl ester]: the IC50 with AsPC1 (pancreas) (setting [2]) is 30 nM; with PC3 (prostate) (setting [3]), 14 nM; in the assay on A375 (melanoma) (setting [4]), 5 nM; in the assay on T47D (breast), 7 nM; in assay [1] it was 15.7 nM; in the assay with LoVo (colon), 2 nM. In addition, the IC50 with H460 (lung) (setting [5]) is 33 nM. Further, in assay [1], the inhibition at 10 µM amounted to 97%.

`COc1cc2c(cc1OC)-c1n[nH]c(Nc3ccccc3F)c1C2` [Compound 12, (6,7-Dimethoxy-2,4-dihydro-indeno[1,2-c]pyrazol-3-yl)-(2-fluoro-phenyl)-amine]: the IC50 is 77 nM in the assay on AsPC1 (pancreas) (setting [2]); 13 nM in the assay with PC3 (prostate) (setting [3]); 11 nM in the assay on A375 (melanoma) (setting [4]); 31 nM in the assay with T47D (breast); 56 nM in assay [1]; 11 nM with LoVo (colon). Besides, the IC50 in the assay with H460 (lung) (setting [5]) was 3 nM. Besides, in assay [1], the inhibition at 10 µM stood at 76%.

As to `COc1cc2c(cc1OC)-c1n[nH]c(Nc3cccc(F)c3)c1C2` [Compound 14, (3-Fluoro-phenyl)-(6,7-dimethoxy-2,4-dihydro-indeno[1,2-c]pyrazol-3-yl)-amine], the IC50 in the assay on AsPC1 (pancreas) (Homo sapiens, ASPC1, read-out: IC50 on cell proliferation, AsPC1) came out at 592 nM; in the assay on PC3 (prostate) (Homo sapiens, PC-3, read-out: IC50 on cell proliferation, PC3), 20 nM; in the assay with A375 (melanoma) (Homo sapiens, A-375, read-out: IC50 on cell proliferation, A375) it was 7 nM; in the assay with T47D (breast), 32 nM; in assay [1], 1.7 nM; in the assay on LoVo (colon) it was 11 nM. Also, the IC50 in the assay with H460 (lung) (Homo sapiens, NCI-H460, read-out: IC50 on cell proliferation, H460) worked out at 10 nM. In assay [1], the inhibition at 10 µM was 108%.

Turning to `COc1cc2c(cc1OC)-c1c(c(Nc3cccc(F)c3)nn1C(=O)CO)C2` [Compound 432, 1-[3-(3-Fluoro-phenylamino)-6,7-dimethoxy-4H-indeno[1,2-c]pyrazol-1-yl]-2-hydroxy-ethanone], the IC50 amounted to 40 nM in the assay on AsPC1 (pancreas) (setting [2]); 12 nM in the assay on PC3 (prostate) (setting [3]); 2 nM in the assay on A375 (melanoma) (setting [4]); 6 nM in the assay with T47D (breast); 38 nM in assay [1]; 35 nM with LoVo (colon). In addition, the inhibition at 10 µM in assay [1] came out at 95.5%.

(Values after patent US7196110B2, “N-substituted tricyclic 3-aminopyrazoles as inhibitors for the treatment of cell proliferative disorders” (Janssen Phamaceutica N.V., priority 2002, dated 2007).)
